From patent US11046658B2, “Aminopyrazine derivatives as PI3K-γ inhibitors” (Incyte Corporation, priority 2018, dated 2021)
Where a name gives a salt, the structure may show the parent alone. Read-outs that look alike come from different tables or passages of the source.

Test system: Phosphorylated Ribosomal Protein S6 (RPS6) in THP-1 cells
Assay: THP-1 RPS6 ELISA Assay
Type: cell-based, Human
Settings: Homo sapiens, THP-1 cells, 10 nM MCP-1, read-out: PI3Kγ_THP1_RPS6_ELISA IC50
In short: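 Cells serum-starved overnight, pre-incubated with compounds 2 h at 37° C, then stimulated with 10 nM MCP-1 for 15 min. Lysates assayed for phospho-RPS6 by ELISA read at 450 nm. IC50 from percent inhibition vs log concentration curve fit.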

Compound	IC50 (Table A1)	also measured
Cc1ccc(C(O)(C(N)=O)C(F)(F)F)cc1-c1cnc(N)c(C#Cc2ccn[nH]2)n1 (centres unmarked) [Example 52, 2-(3-(6-((1H-pyrazol-5-yl)ethynyl)-5-aminopyrazin-2-yl)-4-methylphenyl)-3,3,3-trifluoro-2-hydroxypropanamide]		IC50 (Table A2): < 500 nM
Cc1ccc(C(O)(C(N)=O)C(F)(F)F)cc1-c1cnc(N)c(C(=O)N[C@@H](C)CO)n1 (stereo partly drawn) [Example 12, 3-amino-6-(5-(3-amino-1,1,1-trifluoro-2-hydroxy-3-oxopropan-2-yl)-2-methylphenyl)-N-((S)-1-hydroxypropan-2-yl)pyrazine-2-carboxamide]	< 100 nM	
Cc1ccc(C(O)(C(N)=O)C(F)(F)F)cc1-c1cnc(N)c(C#Cc2ccc(C#N)cc2)n1 (centres unmarked) [Example 58, 2-(3-(5-amino-6-((4-cyanophenyl)ethynyl)pyrazin-2-yl)-4-methylphenyl)-3,3,3-trifluoro-2-hydroxypropanamide]		IC50 (Table A2): < 100 nM
CC(=O)NCC(O)(c1ccc(C)c(-c2cnc(N)c(-c3cnn(CC(F)(F)F)c3)n2)c1)C(F)(F)F (centres unmarked) [Example 104, N-(2-(3-(5-amino-6-(1-(2,2,2-trifluoroethyl)-1H-pyrazol-4-yl)pyrazin-2-yl)-4-methylphenyl)-3,3,3-trifluoro-2-hydroxypropyl)acetamide trifluoroacetate]		IC50 (Table A3): < 100 nM
Cc1ccc(C(O)(C(N)=O)C(F)(F)F)cc1-c1cnc(N)c(C#CC2CC2)n1 (centres unmarked) [Example 48, 2-(3-(5-amino-6-(cyclopropylethynyl)pyrazin-2-yl)-4-methylphenyl)-3,3,3-trifluoro-2-hydroxypropanamide]		IC50 (Table A2): > 1000 nM
Cc1ccc(C(O)(C(N)=O)C(F)(F)F)cc1-c1cnc(N)c(C(=O)NC(C)(C)CO)n1 (centres unmarked) [Example 13, 3-Amino-6-(5-(3-amino-1,1,1-trifluoro-2-hydroxy-3-oxopropan-2-yl)-2-methylphenyl)-N-(1-hydroxy-2-methylpropan-2-yl)pyrazine-2-carboxamide]	< 100 nM	
CC(=O)NCC(O)(c1ccc(C)c(-c2cnc(N)c(C(=O)NC(C)C)n2)c1)C(F)(F)F (centres unmarked) [Example 39, 6-(5-(3-Acetamido-1,1,1-trifluoro-2-hydroxypropan-2-yl)-2-methylphenyl)-3-amino-N-isopropylpyrazine-2-carboxamide trifluoroacetate]	< 500 nM	
Cc1ccc(C(O)(C(N)=O)C(F)(F)F)cc1-c1cnc(N)c(C(=O)Nc2ccnn2C)n1 (centres unmarked) [Example 106, 3-amino-6-(5-(3-amino-1,1,1-trifluoro-2-hydroxy-3-oxopropan-2-yl)-2-methylphenyl)-N-(1-methyl-1H-pyrazol-5-yl)pyrazine-2-carboxamide trifluoroacetate]		IC50 (Table A3): < 100 nM
Cc1ccc(C(O)(C(N)=O)C(F)(F)F)cc1-c1cnc(N)c(C#Cc2cnn(C)c2)n1 (centres unmarked) [Example 54, 2-(3-(5-amino-6-((1-methyl-1H-pyrazol-4-yl)ethynyl)pyrazin-2-yl)-4-methylphenyl)-3,3,3-trifluoro-2-hydroxypropanamide]		IC50 (Table A2): < 100 nM
CCNC(=O)c1nc(-c2cc(C(O)(C(N)=O)C(F)F)ccc2C)cnc1N (centres unmarked) [Example 32, 3-amino-6-(5-(1-amino-3,3-difluoro-2-hydroxy-1-oxopropan-2-yl)-2-methylphenyl)-N-ethylpyrazine-2-carboxamide]	< 100 nM	
Cc1ncc(-c2nc(-c3cc(C(O)(C(N)=O)C(F)F)ccc3C)cnc2N)o1 (centres unmarked) [Example 100, 2-(3-(5-amino-6-(2-methyloxazol-5-yl)pyrazin-2-yl)-4-methylphenyl)-3,3-difluoro-2-hydroxypropanamide]		IC50 (Table A3): < 100 nM
Cc1ccc(C(O)(C(N)=O)C(F)(F)F)cc1-c1cnc(N)c(C(=O)NCC(C)(C)C#N)n1 (centres unmarked) [Example 15, 3-amino-6-(5-(3-amino-1,1,1-trifluoro-2-hydroxy-3-oxopropan-2-yl)-2-methylphenyl)-N-(2-cyano-2-methylpropyl)pyrazine-2-carboxamide trifluoroacetate]	< 100 nM	
Cc1ccc(C(O)(C(N)=O)C(F)(F)F)cc1-c1cnc(N)c(C(=O)NC(C)C)n1 (centres unmarked) [Example 5, 3-Amino-6-(5-(3-amino-1,1,1-trifluoro-2-hydroxy-3-oxopropan-2-yl)-2-methylphenyl)-N-isopropylpyrazine-2-carboxamide trifluoroacetate]	< 100 nM	
Cc1ccc(C(O)(C(N)=O)C(F)F)cc1-c1cnc(N)c(C(=O)NC2CCC(F)(F)CC2)n1 (centres unmarked) [Example 34, 3-amino-6-(5-(1-amino-3,3-difluoro-2-hydroxy-1-oxopropan-2-yl)-2-methylphenyl)-N-(4,4-difluorocyclohexyl)pyrazine-2-carboxamide]	< 100 nM	
COC(C)(C)CNC(=O)c1nc(-c2cc(C(O)(C(N)=O)C(F)(F)F)ccc2C)cnc1N (centres unmarked) [Example 21, 3-amino-6-(5-(3-amino-1,1,1-trifluoro-2-hydroxy-3-oxopropan-2-yl)-2-methylphenyl)-N-(2-methoxy-2-methylpropyl)pyrazine-2-carboxamide trifluoroacetate]	< 100 nM	
Cc1ccc(-c2nc(-c3cc(C(O)(C(N)=O)C(F)(F)F)ccc3C)cnc2N)cn1 (centres unmarked) [Example 82, 2-(3-(5-amino-6-(6-methylpyridin-3-yl)pyrazin-2-yl)-4-methylphenyl)-3,3,3-trifluoro-2-hydroxypropanamide bistrifluoroacetate]		IC50 (Table A3): < 500 nM
Cc1ccc(C(O)(C(N)=O)C(F)(F)F)cc1-c1cnc(N)c(C#CC2(C)CCOCC2)n1 (centres unmarked) [Example 64, 2-(3-(5-amino-6-((4-methyltetrahydro-2H-pyran-4-yl)ethynyl)pyrazin-2-yl)-4-methylphenyl)-3,3,3-trifluoro-2-hydroxypropanamide]		IC50 (Table A2): < 100 nM
Cc1ccc(C(O)(CNC(=O)CF)C(F)(F)F)cc1-c1cnc(N)c(C(=O)NC(C)C)n1 (centres unmarked) [Example 40, 3-Amino-N-isopropyl-6-(2-methyl-5-(1,1,1,-trifluoro-3-(2-fluoroacetamido)-2-hydroxypropan-2-yl)phenyl)pyrazine-2-carboxamide trifluoroacetate]	< 500 nM	
Cc1ccc(C(O)(C(N)=O)C(F)(F)F)cc1-c1cnc(N)c(-c2ccc(C(F)(F)F)nc2)n1 (centres unmarked) [Example 83, 2-(3-(5-amino-6-(6-(trifluoromethyl)pyridin-3-yl)pyrazin-2-yl)-4-methylphenyl)-3,3,3-trifluoro-2-hydroxypropanamide bistrifluoroacetate]		IC50 (Table A3): < 500 nM
Cc1ccc(C(O)(C(N)=O)C(F)(F)F)cc1-c1cnc(N)c(C(=O)NC23CCC(C#N)(CC2)CC3)n1 (centres unmarked) [Example 25, 3-amino-6-(5-(3-amino-1,1,1-trifluoro-2-hydroxy-3-oxopropan-2-yl)-2-methylphenyl)-N-(4-cyanobicyclo[2.2.2]octan-1-yl)pyrazine-2-carboxamide trifluoroacetate]	< 100 nM	
